In article PMC5267425, “Identification of small molecule modulators of HIV-1 Tat and Rev protein accumulation” (Retrovirology, 2017):

Test system: alternative splicing of host transcripts in HeLa rtTA HIV∆Mls cells
Assay: RT-PCR of host alternative splicing events (PSI), capillary electrophoresis
Format: cell-based
Experimental: To assess the effect of compounds on expression/alternative splicing of cellular RNA, two approaches were used. For both, total RNA was prepared from DMSO or compound-treated cells. In the first assay, samples were assayed by medium throughput RT-PCR to determine the inclusion levels of alternatively spliced exons and splice sites located in 73 selected events. 73 primer sets containing a fluorescently (5-FAM) labeled primer for each, were used in RT-PCR. PCR products generated were denatured in formamide and quantified using ABI Prism capillary sequencer (Life Technologies). The fragment analysis was performed on the PeakScanner software (Life Technologies) in batch mode and automated using custom scripts written in Python. The inclusion level of each exon was calculated as the amount of transcripts carrying the alternative exon relative to the total amount of all transcripts detected in the PCR reaction and results are summarized for compound-treatment in comparison to DMSO treatment. In the second assay, extracted RNA was processed using the Illumina TruSeq RNA Sample Preparation Kit (Illumina) according to the manufacturer’s instructions. The cDNA library generated was validated (passed quality control on a Bioanalyzer 1000 DNA chip (Agilent)), normalized and pooled for cluster generation. cDNA libraries were sequenced on the Illumina HiSeq 2500 (paired-end, 125 bp) with version 4 chemistry following manufacturer’s protocols. The full human genome and transcriptomic sequences were downloaded from the UCSC Genome Browser (genome.ucsc.edu) database and Ensembl (www.ensembl.org), respectively, as described by Irimia et al.. Exon annotations and genomic coordinates for alternative splicing (AS) analysis were derived from tables downloaded from the UCSC Genome Browser database. To determine gene expression (GE) or alternative splicing (AS) changes in an unbiased way, the effective number of unique mappable positions in each transcript (i.e. the effective length) was determined by aligning sequences with unique transcriptomic alignment to the human genome using Bowtie. Reads with one unique genomic alignment were then aligned against the canonical transcriptome and, for each transcript, the number of reads with one unique transcriptomic alignment were counted. The expression level of genes was quantified as corrected ‘reads per kilobase of exon model per million mapped reads’ (cRPKM), a widely used metric to estimate gene expression levels. The expression cutoff was 0.5 cRPKM, corresponding to the transcript of the gene being present if there were ≥10 reads that mapped uniquely to a single genomic locus. Approximately 19,847 Ensembl annotated protein-coding genes were compared to create a gene list of differentially expressed genes. Genes were considered differentially expressed if fold changes in cRPKM was ≥2 in compound-treated versus DMSO-treated samples.

[1] = of 70 AS events, 791 30 µM, 833 2 µM

Cc1cc(NCc2cccnc2)n2ncc(-c3ccc(Cl)cc3)c2n1 [Compound 791, 3-(4-chlorophenyl)-5-methyl-N-(3-pyridinylmethyl)pyrazolo[1,5-a]pyrimidin-7-amine] was tested. Which “DPSI AGPAT4_1 chr6:161506598-161506735” value (9147791 minus DMSO, mean n=3) did it give?
The value was -4.00%.

And the “DPSI AGPAT4_1 chr6:161507269-161507439” value (9147791 minus DMSO, mean n=3)?
Its value is -6.33%.

What about the “DPSI APLP2_1 chr11:129498717-129498884” value (9147791 minus DMSO, mean n=3) of the same compound?
The value was 1.33%.

What about the “DPSI APP_1 chr21:26291546-26291602” value (9147791 minus DMSO, mean n=3) of the same compound?
Its value is 0.33%.

And the “DPSI APP_1 chr21:26294201-26294368” value (9147791 minus DMSO, mean n=3)?
Its value is -1.33%.

And the “DPSI ATP6V0A1_1 chr17:37919833-37920004” value (9147791 minus DMSO, mean n=3)?
Its value is 2.00%.

And the “DPSI CA12_1 chr15:61406400-61406485” value (9147791 minus DMSO, mean n=3)?
The value was -0.33%.

What about the “DPSI CA12_1 chr15:61407349-61407382” value (9147791 minus DMSO, mean n=3) of the same compound?
The value was 4.67%.

What about the “DPSI CASP9_1 chr1:15703693-15703840*” value (9147791 minus DMSO, mean n=3) of the same compound?
Its value is -1.33%.

And the “DPSI CAST_1 chr5:96090613-96090669” value (9147791 minus DMSO, mean n=3)?
Its value is 5.33%.

What about the “DPSI CLSTN1_1 chr1:9720143-9720199” value (9147791 minus DMSO, mean n=3) of the same compound?
The value was -8.67%.

And the “DPSI CLSTN1_2 chr1:9739126-9739155” value (9147791 minus DMSO, mean n=3)?
Its value is -2.33%.

What about the “DPSI CRBN_1 chr3:3191846-3191950” value (9147791 minus DMSO, mean n=3) of the same compound?
The value was 0.00%.

And the “DPSI CRBN_1 chr3:3191950-3191953” value (9147791 minus DMSO, mean n=3)?
The value was 0.00%.

What about the “DPSI CTNND1_1 chr11:57318058-57318129” value (9147791 minus DMSO, mean n=3) of the same compound?
Its value is -4.33%.

What about the “DPSI DNM1L_1 chr12:32782066-32782143” value (9147791 minus DMSO, mean n=3) of the same compound?
Its value is 9.00%.

What about the “DPSI DNM1L_1 chr12:32782465-32782497” value (9147791 minus DMSO, mean n=3) of the same compound?
The value was -2.00%.

What about the “DPSI DRCTNNB1A_1 chr7:22953096-22953391” value (9147791 minus DMSO, mean n=3) of the same compound?
The value was -8.00%.

And the “DPSI EIF4A2_1 chr7:187988792-187988899” value (9147791 minus DMSO, mean n=3)?
The value was 3.33%.

And the “DPSI EIF4A2_1 chr7:187988899-187988904” value (9147791 minus DMSO, mean n=3)?
The value was 2.00%.

And the “DPSI EIF4H_1 chr7:73242512-73242572” value (9147791 minus DMSO, mean n=3)?
Its value is 0.00%.

And the “DPSI ERC1_1 chr12:1091641-1091725” value (9147791 minus DMSO, mean n=3)?
The value was 2.67%.

And the “DPSI EXOC7_1 chr17:71598005-71598035” value (9147791 minus DMSO, mean n=3)?
The value was -6.00%.

And the “DPSI EXOC7_1 chr17:71598819-71598911” value (9147791 minus DMSO, mean n=3)?
The value was -4.67%.

What about the “DPSI FAM62B_1 chr7:158238233-158238295” value (9147791 minus DMSO, mean n=3) of the same compound?
Its value is -8.33%.

And the “DPSI FAM104A_1 chr17:68720412-68720474” value (9147791 minus DMSO, mean n=3)?
Its value is -1.00%.

What about the “DPSI FGFR1OP2_1 chr12:27004715-27004828” value (9147791 minus DMSO, mean n=3) of the same compound?
Its value is -11.00%.

What about the “DPSI FIP1L1_1 chr4:53975538-53975646” value (9147791 minus DMSO, mean n=3) of the same compound?
The value was -4.33%.

What about the “DPSI GGCT_1 chr7:30504943-30505080” value (9147791 minus DMSO, mean n=3) of the same compound?
The value was 3.33%.

And the “DPSI GGCT_1 chr7:30506676-30506822” value (9147791 minus DMSO, mean n=3)?
Its value is 3.33%.

What about the “DPSI GLK_1 chr2:39388587-39388650” value (9147791 minus DMSO, mean n=3) of the same compound?
Its value is -0.33%.

And the “DPSI GM130_1 chr9:130069293-130069374” value (9147791 minus DMSO, mean n=3)?
The value was -9.67%.

What about the “DPSI GRB10_1 chr7:50651400-50651538” value (9147791 minus DMSO, mean n=3) of the same compound?
Its value is -0.33%.

And the “DPSI KIF13A_1 chr6:17879324-17879428” value (9147791 minus DMSO, mean n=3)?
Its value is -1.33%.

And the “DPSI MACF1_1 chr1:39616720-39616782” value (9147791 minus DMSO, mean n=3)?
The value was 3.33%.

What about the “DPSI MACF1_5 chr1:39719179-39719289” value (9147791 minus DMSO, mean n=3) of the same compound?
The value was -13.67%.

And the “DPSI MAP3K7_1 chr6:91310992-91311072” value (9147791 minus DMSO, mean n=3)?
Its value is 0.33%.

And the “DPSI MARK3_1 chr14:103034592-103034618” value (9147791 minus DMSO, mean n=3)?
The value was -2.67%.

What about the “DPSI MARK3_1 chr14:103036246-103036290” value (9147791 minus DMSO, mean n=3) of the same compound?
Its value is -1.33%.

What about the “DPSI MBD1_1 chr18:46054554-46054721” value (9147791 minus DMSO, mean n=3) of the same compound?
The value was -9.33%.

What about the “DPSI MBNL2_1 chr13:96807051-96807104” value (9147791 minus DMSO, mean n=3) of the same compound?
The value was 0.33%.

And the “DPSI MFF_1 chr2:227901637-227901749” value (9147791 minus DMSO, mean n=3)?
The value was 4.33%.

What about the “DPSI MRIP_1 chr17:17024646-17024708” value (9147791 minus DMSO, mean n=3) of the same compound?
Its value is 1.00%.

And the “DPSI MVK_1 chr12:108501990-108502134” value (9147791 minus DMSO, mean n=3)?
Its value is 11.00%.

And the “DPSI MVK_1 chr12:108503583-108503738” value (9147791 minus DMSO, mean n=3)?
The value was 20.33%.

And the “DPSI NAP1L1_1 chr12:74747418-74747520” value (9147791 minus DMSO, mean n=3)?
Its value is 4.67%.

What about the “DPSI NAP1L1_1 chr12:74748956-74749041” value (9147791 minus DMSO, mean n=3) of the same compound?
Its value is 4.33%.

And the “DPSI NPHP3_1 chr3:133898264-133898347” value (9147791 minus DMSO, mean n=3)?
The value was -1.00%.

What about the “DPSI NUMB_2 chr14:72815742-72815885” value (9147791 minus DMSO, mean n=3) of the same compound?
The value was 0.67%.

What about the “DPSI NUMB_2 chr14:72820542-72820835” value (9147791 minus DMSO, mean n=3) of the same compound?
Its value is 6.67%.

What about the “DPSI PDCL_1 chr9:124628716-124628892” value (9147791 minus DMSO, mean n=3) of the same compound?
Its value is 1.33%.

What about the “DPSI POLDIP3_1 chr22:41327919-41328006” value (9147791 minus DMSO, mean n=3) of the same compound?
Its value is -3.67%.

What about the “DPSI POMT1_1 chr9:133368281-133368521” value (9147791 minus DMSO, mean n=3) of the same compound?
The value was 5.67%.

And the “DPSI POMT1_1 chr9:133371321-133371428” value (9147791 minus DMSO, mean n=3)?
The value was 5.67%.

And the “DPSI RAI14_1 chr5:34849436-34849522” value (9147791 minus DMSO, mean n=3)?
The value was 3.67%.

And the “DPSI RAN_1 chr12:129923082-129923127” value (9147791 minus DMSO, mean n=3)?
The value was -2.00%.

What about the “DPSI RPS24_1 chr10:79467729-79467746” value (9147791 minus DMSO, mean n=3) of the same compound?
The value was 1.67%.

What about the “DPSI SEC24B_1 chr4:110622281-110622386” value (9147791 minus DMSO, mean n=3) of the same compound?
Its value is -4.00%.

What about the “DPSI SETD5_1 chr3:9453533-9453572” value (9147791 minus DMSO, mean n=3) of the same compound?
The value was -1.33%.

What about the “DPSI SMN2_1 chr5_h2_hap1:475625-475826” value (9147791 minus DMSO, mean n=3) of the same compound?
The value was 0.33%.

What about the “DPSI SMN2_2 chr5_h2_hap1:466192-466246” value (9147791 minus DMSO, mean n=3) of the same compound?
The value was 1.67%.

And the “DPSI SPAG9_1 chr17:46408223-46408261” value (9147791 minus DMSO, mean n=3)?
The value was -6.67%.

What about the “DPSI SRPK2_1 chr2:104553464-104553557” value (9147791 minus DMSO, mean n=3) of the same compound?
The value was -1.00%.

What about the “DPSI SRPK2_1 chr2:104553930-104554023” value (9147791 minus DMSO, mean n=3) of the same compound?
The value was 0.00%.

What about the “DPSI TPM1_1 chr15:61140450-61140525” value (9147791 minus DMSO, mean n=3) of the same compound?
Its value is 1.67%.

What about the “DPSI TPM1_1 chr15:61140965-61141040” value (9147791 minus DMSO, mean n=3) of the same compound?
The value was -1.67%.

What about the “DPSI TRIM37_1 chr17:54433741-54433857” value (9147791 minus DMSO, mean n=3) of the same compound?
Its value is -4.67%.

And the “DPSI ZNF827_1 chr4:146903692-146903724” value (9147791 minus DMSO, mean n=3)?
The value was 2.33%.

And the “DPSI ZNF827_1 chr4:146905581-146905589” value (9147791 minus DMSO, mean n=3)?
The value was -1.00%.

What about the “AS events with DPSI ≤ -10%” value [1] of the same compound?
The value was 2.

What about the “AS events with DPSI ≥ 10%” value [1] of the same compound?
Its value is 0.

And the “AS events with P ≤ 0.05” value [1]?
Its value is 9.
